Experimental findings from ChEMBL document CHEMBL1153256, “Unusual stereochemical preferences of decahydroisoquinoline-3-cargoxylic acid competitive NMDA antagonists” (Bioorg Med Chem Lett, 1993) are described below.

For one test, the target named is Glutamate NMDA receptor. The experiment in a line: Inhibition of [3H]-CGS- 19755 binding to rat brain membrane NMDA receptor.
The species entered for the next test is Rattus norvegicus. Kind of test: Compound was tested for relative potency as NMDA antagonist by determining its ability to inhibit depolarizations induced by 40 uM NMDA in a cortical slice preparation. The format is functional.
Another test is filed under the species Mus musculus. Kind of test: Minimum effective dose to prevent NMDA-induced lethality in mice. The format is functional.

Each structure is given as a SMILES string.

As to `O=C(O)C1CC2CC(Cc3nnn[nH]3)CCC2CN1` (stereo in doubt; (-)-4 R), the IC50 on Glutamate NMDA receptor was determined as 3.32 µM; in the test listed under Rattus norvegicus, 6.2 µM.

In the case of `O=C(O)C1CC2CC(Cc3nnn[nH]3)CCC2CN1` (single isomer, unassigned; (+)), the IC50 was 22.6 µM at Glutamate NMDA receptor and > 100 µM in the test listed under Rattus norvegicus. Also, the MED in the test listed under Mus musculus is >160 mg/kg.

`O=C(O)C1CC2CC(CP(=O)(O)O)CCC2CN1` (stereo in doubt; (-)-3 R): at Glutamate NMDA receptor, the IC50 is 0.67 µM.

As to `O=C(O)C1CC2CC(Cc3nnn[nH]3)CCC2CN1` (stereo in doubt; (-)-2 S), the IC50 at Glutamate NMDA receptor came to 0.42 µM; in the test listed under Rattus norvegicus it was 0.82 µM. The molecule also displayed an MED in the test filed under Mus musculus of 1.25 mg/kg.

Regarding `O=C(O)C1CC2CC(CP(=O)(O)O)CCC2CN1` (stereo in doubt; (+)-3 S), the half-maximal inhibitory concentration (IC50) on Glutamate NMDA receptor was determined as 8.7 µM. That is a single-digit micromolar value.

As to `O=C(O)C1CC2CC(Cc3nnn[nH]3)CCC2CN1` (racemic; form 1), the IC50 on Glutamate NMDA receptor worked out at 3.41 µM; in the test listed under Rattus norvegicus it was 4.8 µM. Further, the MED in the test filed under Mus musculus is 40 mg/kg.

Take `O=C(O)C1CC2CC(CP(=O)(O)O)CCC2CN1` (racemic; form 1): the concentration for half-maximal inhibition (IC50) at Glutamate NMDA receptor was determined as 0.055 µM; in the test filed under Rattus norvegicus, 0.15 µM. For the same molecule, the MED in the test filed under Mus musculus was 1.25 mg/kg.

For `O=C(O)C1CC2CC(Cc3nnn[nH]3)CCC2CN1` (racemic; form 2), the IC50 on Glutamate NMDA receptor came to 0.94 µM; in the test filed under Rattus norvegicus, 1.39 µM. The MED in the test filed under Mus musculus amounted to 2.5 mg/kg.

With `O=C(O)C1CC2CC(CP(=O)(O)O)CCC2CN1` (single isomer, unassigned; (-)), the IC50 on Glutamate NMDA receptor turned out to be 0.025 µM; in the test filed under Rattus norvegicus, 0.22 µM. Moreover, the MED in the test filed under Mus musculus amounted to 0.625 mg/kg.

In the case of `O=C(O)C1CC2CC(Cc3nnn[nH]3)CCC2CN1` (stereo in doubt; (+)-4 S), the values for the half-maximal inhibitory concentration (IC50) at Glutamate NMDA receptor and in the test filed under Rattus norvegicus were 5.16 µM and 28 µM, respectively.

With `O=C(O)C1CC2CC(CP(=O)(O)O)CCC2CN1` (stereo in doubt; (+)-1 R), the values for the IC50 at Glutamate NMDA receptor and in the test listed under Rattus norvegicus were 8.4 µM and 33 µM, respectively. Moreover, the MED in the test listed under Mus musculus turned out to be 80 mg/kg.

In the case of `O=C(O)C1CC2CC(CP(=O)(O)O)CCC2CN1` (racemic; form 2), the half-inhibitory concentration (IC50) came out at 0.82 µM at Glutamate NMDA receptor and 1.7 µM in the test listed under Rattus norvegicus. The molecule also showed an MED in the test listed under Mus musculus of 2.5 mg/kg.

In general, IC50 refers to the concentration at which inhibition is half-maximal. Read a high IC50 as weaker potency.
